Literature values as cited in US20220288158A1, “NOVEL ENTERIC COMBINATION THERAPY” (priority 2009, published 2022).

Tested on: patients with constipation
Settings: for effect on bowel activity when used in constipation: literature, Brandt L J et al 2009

CO[C@H]1/C=C/O[C@@]2(C)Oc3c(C)c(O)c4c(O)c(c5c(nc6cc(C)ccn65)c4c3C2=O)NC(=O)/C(C)=C\C=C\[C@H](C)[C@H](O)[C@@H](C)[C@@H](O)[C@@H](C)[C@H](OC(C)=O)[C@@H]1C [rifaximin]
effect on bowel activity when used in constipation: variable and not reproducible

CN[C@H](CC(C)C)C(=O)N[C@H]1C(=O)N[C@@H](CC(N)=O)C(=O)N[C@H]2C(=O)N[C@H]3C(=O)N[C@H](C(=O)N[C@H](C(=O)O)c4cc(O)cc(O)c4-c4cc3ccc4O)[C@H](O)c3ccc(c(Cl)c3)Oc3cc2cc(c3O[C@@H]2O[C@H](CO)[C@@H](O)[C@H](O)[C@H]2O[C@H]2C[C@](C)(N)[C@H](O)[C@H](C)O2)Oc2ccc(cc2Cl)[C@H]1O [vancomycin]
use of vancomycin alone in constipation (not all patients respond, and respond but partially): inefficient

neomycin
effect on bowel activity when used in constipation: variable and not reproducible

Cc1ncc([N+](=O)[O-])n1CCO [metronidazole]
effect on bowel activity when used in constipation: variable and not reproducible

CC[C@H]1OC(=O)[C@H](C)[C@@H](O[C@H]2C[C@@](C)(OC)[C@@H](O)[C@H](C)O2)[C@H](C)[C@@H](O[C@@H]2O[C@H](C)C[C@H](N(C)C)[C@H]2O)[C@](C)(OC)C[C@@H](C)C(=O)[C@H](C)[C@@H](O)[C@]1(C)O [clarithromycin]
effect on bowel activity when used in constipation: variable and not reproducible
